The record followed here is patent publication US9044483B2, “Cell death inhibition by macrophage migration inhibitory factor and a binding substance thereto” (Takeda Pharmaceuticals Company Limited, priority 2006, dated 2015).

One assay addresses T1, hMIF-P1S (Homo sapiens, UniProt P14174).
T1 construct: the region encoding MIF was amplified from human complementary DNA (cDNA) library; made in house; host or cells: Escherichia coli BL21 (DE3)
T1 sequence (P14174 with tags, fused parts or gaps): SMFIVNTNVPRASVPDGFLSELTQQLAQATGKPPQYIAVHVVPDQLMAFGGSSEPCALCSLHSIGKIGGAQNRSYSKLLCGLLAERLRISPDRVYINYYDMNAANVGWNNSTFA
As to the kind of experiment: Binding of modified human MIF (hMIF-P1S) to immobilized Compound A by BIACORE 3000. The note with it: 10 μg/ml hMIF or hMIF-P1S in HBS-EP buffer, FIG. 2. As to the method:
The binding of human MIF (hMIF) and modified human MIF (hMIF-P1S) obtained in REFERENCE EXAMPLE 1 to Compound A was analyzed by BIACORE 3000 (manufactured by Biacore Co., Ltd.).
(§1) After Compound A was immobilized onto a sensor chip CM5 (manufactured by Biacore Co., Ltd.), HBS-EP buffer (manufactured by Biacore Co., Ltd.) containing 10 μg/ml of hMIF or hMIF-P1S was passed over the chip to assess changes in surface plasmon resonance signal as the binding of the compound to human MIF.

The next assay addresses T2, His-hMIF (Homo sapiens, UniProt P14174).
T2 construct: the region encoding MIF was amplified from human complementary DNA (cDNA) library; made in house; host or cells: Escherichia coli BL21 (DE3)
T2 sequence (P14174 with tags, fused parts or gaps): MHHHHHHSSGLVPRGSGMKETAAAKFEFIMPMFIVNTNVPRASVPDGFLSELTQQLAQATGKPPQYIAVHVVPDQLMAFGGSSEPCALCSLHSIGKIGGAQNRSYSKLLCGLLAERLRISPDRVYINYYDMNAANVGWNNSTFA
As to the kind of experiment: Binding of His-hMIF (peptide added to N terminus) to immobilized Compound A by BIACORE 3000. The note with it: FIG. 5. The protocol:
as §1
Similarly, the binding of Compound A to His-hMIF added with the peptide to its N terminus, obtained in REFERENCE EXAMPLE 3, was analyzed.

The target in a further assay is T3, rat MIF (Rattus norvegicus, UniProt P30904, G111N).
T3 construct: made in house; host or cells: Escherichia coli BL21 (DE3)
As to the kind of experiment: Binding to rat MIF by surface plasmon resonance (BIACORE 3000), compound immobilized on sensor chip CM5. The note with it: 1 μg/ml rat MIF in PBS with 0.005% Tween 20, FIG. 1, FIG. 4. As to the method:
The binding of rat MIF obtained in REFERENCE EXAMPLE 2 to Compound A (cf., EXAMPLE 107 of WO 03/020719; see the formula below) was analyzed by BIACORE 3000 (manufactured by Biacore Co., Ltd.).
After Compound A was immobilized onto a sensor chip CM5 (manufactured by Biacore Co., Ltd.), phosphate buffered saline containing 0.005% Tween 20 containing 1 μg/ml of rat MIF was passed over the chip to assess changes in surface plasmon resonance signal as the binding of the compound to rat MIF.
The binding of rat MIF obtained in REFERENCE EXAMPLE 2 to Compound C (see the formula below) was analyzed by BIACORE 3000 (manufactured by Biacore Co., Ltd.). In a manner similar to EXPERIMENT 1(1), Compound C was immobilized onto a sensor chip CM5 (manufactured by Biacore Co., Ltd.) and then, phosphate buffered saline containing 0.005% Tween 20 containing 1 μg/ml of rat MIF was passed over the chip to assess changes in surface plasmon resonance signal as the binding of the compound to rat MIF.
On the technique in general: In SPR one partner is held on a chip, and binding of the other changes the refractive index at the surface.

With `NCCCCCCNC(=O)c1cccc(-c2nc(=O)c3ccccc3s2)n1` [Compound A, N-(6-aminohexyl)-6-(4-oxo-4H-1,3-benzothiazin-2-yl)-2-pyridinecarboxamide], the “binding ability of Compound A to human MIF with N-terminal proline replaced by serine (hMIF-P1S), compared with hMIF” value at hMIF-P1S is “greatly attenuated”. In addition, the “binding ability of Compound A to human MIF with 30 amino acid-polypeptide containing histidine tag added to the N terminus (His-hMIF), compared with hMIF” value at His-hMIF was “greatly attenuated”. Besides, the “binding of the compound to rat MIF (changes in surface plasmon resonance signal)” value at rat MIF is “strongly binds”.
With `Cc1cccc2c(=O)nc(-c3cccc(C(=O)NCCCCCCN)n3)sc12` [Compound C, N-(6-aminohexyl)-6-(8-methyl-4-oxo-4H-1,3-benzothiazin-2-yl)pyridine-2 carboxamide], the “binding of the compound to rat MIF (changes in surface plasmon resonance signal)” value at rat MIF was “weaker than that of Compound A”.
